Assays:
Test in all cases: relative viability (nuclei count vs DMSO), 5 days (fraction); higher = more cells survive
NCI-H2023 = system: NCI-H2023
Method in brief: (§1)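 Dosing by pin tool came one day after lung cancer cell lines were seeded in 1536-well plates, using either one drug or a fixed anchor-drug dose plus five library-drug doses (not always all listed) in √10 steps. After 5 days, nuclei were counted on 4× images. Relative viability is treated-well nuclei count divided by vehicle-well nuclei count, and values are medians of duplicate plates.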

NCI-H2126 = system: NCI-H2126
Method in brief: as §1

NCI-H322M = system: NCI-H322M
Method in brief: as §1

EPLC-272H = system: EPLC-272H
Method in brief: as §1

HCC-15 = system: HCC-15
Method in brief: as §1

NCI-H522 = system: NCI-H522
Method in brief: as §1

HOP-62 = system: HOP-62
Method in brief: as §1

COR-L 105 = system: COR-L 105
Method in brief: as §1

EMC-BAC-2 = system: EMC-BAC-2
Method in brief: as §1

NCI-H1993 = system: NCI-H1993
Method in brief: as §1

HCC-78 = system: HCC-78
Method in brief: as §1

ChaGo-K-1 = system: ChaGo-K-1
Method in brief: as §1

UMC-11 = system: UMC-11
Method in brief: as §1

NCI-H3122 = system: NCI-H3122
Method in brief: as §1

NCI-H2085 = system: NCI-H2085
Method in brief: as §1

LXF-289 = system: LXF-289
Method in brief: as §1

CAL-12T = system: CAL-12T
Method in brief: as §1

NCI-H358 = system: NCI-H358
Method in brief: as §1

NCI-H441 = system: NCI-H441
Method in brief: as §1

NCI-H1915 = system: NCI-H1915
Method in brief: as §1

NCI-H1755 = system: NCI-H1755
Method in brief: as §1

ABC-1 = system: ABC-1
Method in brief: as §1

NCI-H1975 = system: NCI-H1975
Method in brief: as §1

NCI-H1666 = system: NCI-H1666
Method in brief: as §1

Compound: C[C@@H]1CN(CC(=O)Nc2ccc3c(c2)Cc2cccc(-c4cc(=O)cc(N5CCOCC5)o4)c2S3)C[C@H](C)O1 + CC(=O)c1c(C)c2cnc(Nc3ccc(N4CCNCC4)cn3)nc2n(C2CCCC2)c1=O [Palbociclib] (partner 0.5 µM)
- relative viability (NCI-H2023; first compound 0.04 µM): 0.426
- relative viability (NCI-H2023; first compound 0.1265 µM): 0.336
- relative viability (NCI-H2023; first compound 0.4 µM): 0.371
- relative viability (NCI-H2023; first compound 4 µM): 0.288
- relative viability (NCI-H2126; first compound 0.04 µM): 0.384
- relative viability (NCI-H2126; first compound 0.1265 µM): 0.343
- relative viability (NCI-H2126; first compound 0.4 µM): 0.348
- relative viability (NCI-H2126; first compound 4 µM): 0.334
- relative viability (NCI-H322M; first compound 0.04 µM): 0.421
- relative viability (NCI-H322M; first compound 0.1265 µM): 0.475
- relative viability (NCI-H322M; first compound 0.4 µM): 0.506
- relative viability (NCI-H322M; first compound 4 µM): 0.522
- relative viability (EPLC-272H; first compound 0.04 µM): 0.38
- relative viability (EPLC-272H; first compound 0.1265 µM): 0.388
- relative viability (EPLC-272H; first compound 0.4 µM): 0.331
- relative viability (EPLC-272H; first compound 4 µM): 0.321
- relative viability (HCC-15; first compound 0.04 µM): 0.706
- relative viability (HCC-15; first compound 0.1265 µM): 0.708
- relative viability (HCC-15; first compound 0.4 µM): 0.751
- relative viability (HCC-15; first compound 4 µM): 0.678
- relative viability (NCI-H522; first compound 0.04 µM): 0.934
- relative viability (NCI-H522; first compound 0.1265 µM): 0.839
- relative viability (NCI-H522; first compound 0.4 µM): 1.06
- relative viability (NCI-H522; first compound 4 µM): 0.972
- relative viability (HOP-62; first compound 0.04 µM): 0.398
- relative viability (HOP-62; first compound 0.1265 µM): 0.43
- relative viability (HOP-62; first compound 0.4 µM): 0.412
- relative viability (HOP-62; first compound 4 µM): 0.405
- relative viability (COR-L 105; first compound 0.04 µM): 0.391
- relative viability (COR-L 105; first compound 0.1265 µM): 0.424
- relative viability (COR-L 105; first compound 0.4 µM): 0.397
- relative viability (COR-L 105; first compound 4 µM): 0.328
- relative viability (EMC-BAC-2; first compound 0.04 µM): 0.502
- relative viability (EMC-BAC-2; first compound 0.1265 µM): 0.529
- relative viability (EMC-BAC-2; first compound 0.4 µM): 0.502
- relative viability (EMC-BAC-2; first compound 4 µM): 0.545
- relative viability (NCI-H1993; first compound 0.04 µM): 0.645
- relative viability (NCI-H1993; first compound 0.1265 µM): 0.729
- relative viability (NCI-H1993; first compound 0.4 µM): 0.438
- relative viability (NCI-H1993; first compound 4 µM): 0.662
- relative viability (HCC-78; first compound 0.04 µM): 0.456
- relative viability (HCC-78; first compound 0.1265 µM): 0.458
- relative viability (HCC-78; first compound 0.4 µM): 0.48
- relative viability (HCC-78; first compound 4 µM): 0.487
- relative viability (ChaGo-K-1; first compound 0.04 µM): 0.902
- relative viability (ChaGo-K-1; first compound 0.1265 µM): 0.924
- relative viability (ChaGo-K-1; first compound 0.4 µM): 0.925
- relative viability (ChaGo-K-1; first compound 4 µM): 0.898
- relative viability (UMC-11; first compound 0.04 µM): 0.33
- relative viability (UMC-11; first compound 0.1265 µM): 0.332
- relative viability (UMC-11; first compound 0.4 µM): 0.321
- relative viability (UMC-11; first compound 4 µM): 0.338
- relative viability (NCI-H3122; first compound 0.04 µM): 0.214
- relative viability (NCI-H3122; first compound 0.1265 µM): 0.201
- relative viability (NCI-H3122; first compound 0.4 µM): 0.176
- relative viability (NCI-H3122; first compound 4 µM): 0.161
- relative viability (NCI-H2085; first compound 0.04 µM): 0.476
- relative viability (NCI-H2085; first compound 0.1265 µM): 0.436
- relative viability (NCI-H2085; first compound 0.4 µM): 0.498
- relative viability (NCI-H2085; first compound 4 µM): 0.419
- relative viability (LXF-289; first compound 0.04 µM): 0.616
- relative viability (LXF-289; first compound 0.1265 µM): 0.617
- relative viability (LXF-289; first compound 0.4 µM): 0.613
- relative viability (LXF-289; first compound 4 µM): 0.549
- relative viability (CAL-12T; first compound 0.04 µM): 0.53
- relative viability (CAL-12T; first compound 0.1265 µM): 0.411
- relative viability (CAL-12T; first compound 0.4 µM): 0.44
- relative viability (CAL-12T; first compound 4 µM): 0.28
- relative viability (NCI-H358; first compound 0.04 µM): 0.123
- relative viability (NCI-H358; first compound 0.1265 µM): 0.132
- relative viability (NCI-H358; first compound 0.4 µM): 0.12
- relative viability (NCI-H358; first compound 4 µM): 0.127
- relative viability (NCI-H441; first compound 0.04 µM): 0.257
- relative viability (NCI-H441; first compound 0.1265 µM): 0.213
- relative viability (NCI-H441; first compound 0.4 µM): 0.223
- relative viability (NCI-H441; first compound 4 µM): 0.227
- relative viability (NCI-H1915; first compound 0.04 µM): 0.517
- relative viability (NCI-H1915; first compound 0.1265 µM): 0.526
- relative viability (NCI-H1915; first compound 0.4 µM): 0.507
- relative viability (NCI-H1915; first compound 4 µM): 0.311
- relative viability (NCI-H1755; first compound 0.04 µM): 0.475
- relative viability (NCI-H1755; first compound 0.1265 µM): 0.449
- relative viability (NCI-H1755; first compound 0.4 µM): 0.432
- relative viability (NCI-H1755; first compound 4 µM): 0.399
- relative viability (ABC-1; first compound 0.04 µM): 0.376
- relative viability (ABC-1; first compound 0.1265 µM): 0.673
- relative viability (ABC-1; first compound 0.4 µM): 0.634
- relative viability (ABC-1; first compound 4 µM): 0.811
- relative viability (NCI-H1975; first compound 0.04 µM): 0.578
- relative viability (NCI-H1975; first compound 0.1265 µM): 0.58
- relative viability (NCI-H1975; first compound 0.4 µM): 0.395
- relative viability (NCI-H1975; first compound 4 µM): 0.487
- relative viability (NCI-H1666; first compound 0.04 µM): 0.584
- relative viability (NCI-H1666; first compound 0.1265 µM): 0.616
- relative viability (NCI-H1666; first compound 0.4 µM): 0.611
- relative viability (NCI-H1666; first compound 4 µM): 0.662

Reference: the supplement of paper PMC10307832
